The text below walks through data of patent US12668568B2, “Adamantanyl-substituted benzamide compounds and their use as P2X7 receptor antagonists” (The University of Sydney, priority 2018, dated 2026).

“And” between values parts separate entries of the source, which are not always exact repeats. Identical values can stand only once.

Series [1] deals with T1, hP2X7R (Homo sapiens, UniProt Q99572).
T1 sequence (Q99572 1-595): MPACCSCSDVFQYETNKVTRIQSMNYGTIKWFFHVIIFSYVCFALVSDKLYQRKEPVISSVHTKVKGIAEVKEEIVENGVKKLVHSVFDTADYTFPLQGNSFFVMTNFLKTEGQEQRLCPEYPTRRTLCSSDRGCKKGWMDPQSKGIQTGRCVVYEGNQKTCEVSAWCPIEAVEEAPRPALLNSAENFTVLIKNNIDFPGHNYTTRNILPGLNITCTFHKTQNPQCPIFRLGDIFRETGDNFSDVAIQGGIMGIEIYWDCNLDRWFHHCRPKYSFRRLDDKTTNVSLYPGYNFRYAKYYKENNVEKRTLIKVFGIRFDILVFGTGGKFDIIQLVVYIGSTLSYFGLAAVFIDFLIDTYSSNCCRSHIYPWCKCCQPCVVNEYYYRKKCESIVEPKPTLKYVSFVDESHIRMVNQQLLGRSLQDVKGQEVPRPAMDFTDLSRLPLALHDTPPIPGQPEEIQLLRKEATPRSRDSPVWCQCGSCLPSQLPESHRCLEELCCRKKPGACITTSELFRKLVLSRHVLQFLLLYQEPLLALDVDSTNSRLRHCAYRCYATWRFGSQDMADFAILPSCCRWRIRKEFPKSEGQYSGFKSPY
Description: Calcium influx assay in HEK-hP2X7 cells. In kind it is cell-based. The following applies: HEK cells expressing hP2X7R, BzATP 100 μM; mean ± standard deviation, n >3. On the procedure: HEK293T cells transfected with cDNA for the human (HEK-hP2X7) or mouse P2X7 (HEK-mP2X7) receptor (a kind gift from Dr […] Stokes and Prof. Jim Wiley) were cultured in DMEM/F12 with 10% FBS and 500 μg/mL G418 (all from Invitrogen). […] HEK-hP2X7 or HEK-mP2X7 cells were harvested using trypsin (0.05%) with EDTA (0.03%). Cells were loaded with Fluo-4 AM (1 μM) in HBSS buffer at 37° C. for 30 min, inverting every 5 mins. […] Fluorescence was then monitored every 5 s for 5 min total monitoring. […] Data were normalized to the peak response seen with BzATP alone and the basal response seen due to injection of vehicle (see FIG. 3).

Series [2] addresses T2, CYP2D6 (Homo sapiens, UniProt P10635).
T2 construct: host or cells: insect cells infected with recombinant baculovirus (microsomes)
The series can be described thus: Cytochrome profiling CYP2D6 (baculosomes). The following applies: probe fluorogenic probe substrate (not named), 10 μM substrate. In kind it is in vitro ADME. From the text:
(§1) Cytochrome P450 (abbreviated CYP, P450 or CYP450) belong to very large and diverse superfamily of haemoproteins which accept both exogenous and endogenous compounds as substrates in enzymatic reactions and play a major role in drug metabolism. Although this class has more than 50 enzymes just 5 of them (CYP1A2, CYP2C9, CYP2C19, CYP2D6 and CYP3A4) are able to metabolise almost 90% of all drugs. Inhibition of these enzymes is one of the major reasons for drug-drug interactions. Consequently, detailed CYP inhibition profiles are a regulatory requirement for all new drugs. Inhibition potencies against the five most relevant CYP isoforms is performed using baculosomes; microsomes prepared from insect cells infected with recombinant baculovirus containing cDNA for a specific human P450 isozyme. The baculosomes are incubated with drug at a concentration of 1 μM in the presence of a probe substrate for 60 minutes at 37° C. The probe is normally metabolised by the baculosomes to produce a fluorescent metabolite. A substrate drug will compete for the isozyme and reduce the metabolism of the probe resulting in a decrease in the fluorescent signal. The percent inhibition due to the presence of the test compound is calculated using the following equation: [formula] • X=fluorescent intensity observed in the presence of test compound • A=fluorescent intensity observed in control • B=fluorescent intensity observed in the presence of the probe control

Series [3] concerns the target T3, CYP2C9 (Homo sapiens, UniProt P11712).
T3 construct: host or cells: insect cells infected with recombinant baculovirus (microsomes)
The series can be described thus: Cytochrome profiling CYP2C9 (baculosomes). The following applies: probe fluorogenic probe substrate (not named), 10 μM substrate. The series is classed as in vitro ADME.
Excerpt: as §1

For series [4], the system named is P-gp (human MDR1). Description: MDCK P-glycoprotein bidirectional permeability assay. The series is classed as in vitro ADME, canine. The following applies: dog, 30 minute, 37° C.; for Papp A→B at 30 min, 10 μM: apical to basolateral; for Papp B→A at 30 min, 10 μM: basolateral to apical. As to the method: The transcellular permeability of test compounds and the influence of Pgp-mediated efflux on drug permeability was assessed using hMDR1-MDCK monolayers grown on filter supports. All compounds were dissolved in 100% DMSO to provide 10 mM stock solutions from which donor (dose) solutions were prepared in DMEM to give a final drug concentration of 10 μM. All dose solutions contained 10 μM propranolol as an internal standard. hMDR1-MDCK seeded filters were exposed to a fixed volume of the donor solution containing the compound of interest and its ability to traverse the monolayer and appear in the receiver compartment measured over a 30 minute period at 37° C. Bidirectional permeability measurements were derived by examining the transfer of compound in both the apical to basolateral compartment, and vice versa. Sample analysis was conducted using LC-MS/MS with the detection settings optimised for each test compound. Following analysis of the samples the apparent permeability coefficient (Papp, cm/sec) for the discovery compounds is determined using the following relationship: [formula] • VR=Volume of the receiver compartment • A=Surface area of the filter • CD=Drug concentration in the donor concentration • Δt=incubation time • ΔCR=the amount of drug detected in the receiver compartment The efflux ratio can be determined from these values by calculating the ratio of the Papp values derived in the B-A direction and A-B direction (i.e. Papp B-A/Papp A-B). […] P-gp) influencing transport.

The target in series [5] is T4, CYP2C19 (Homo sapiens, UniProt P33261).
T4 construct: host or cells: insect cells infected with recombinant baculovirus (microsomes)
Description: Cytochrome profiling CYP2C19 (baculosomes). The following applies: probe fluorogenic probe substrate (not named), 10 μM substrate. The series is classed as in vitro ADME.
Excerpt: as §1

Series [6] addresses T1, hP2X7R. The series can be described thus: Radioligand binding assay, displacement of [3H]-Compound 31, HEK-hP2X7 membranes. The following applies: displacement of tritium-labeled benzamide 31-t3, HEK cells expressing hP2X7R; mean ± standard deviation, n >3; read-out: Binding affinity Ki. On the procedure:
Homogenates were centrifuged at 48 000 g for 20 min at 4° C., the supernatant discarded and the pellet resuspended in Tris HCl 50 mM (pH 7.4 at 4° C.). Two additional spins at 48 000 g followed, discarding the supernatant each time and resuspending the pellet in 50 mM Tris HCl each time. Protein content was determined via bicinchoninic acid (BCA) assay (Pierce Biotechnology Inc., Rockford), the membrane solution supplemented with 0.1% bovine serum albumin (BSA) and stored at −80° C.
The incubation was terminated by rapid filtration through a glass fibre filter (GF/B; Millipore, Ireland), presoaked beforehand with 0.3% PEI) and washed 10 times with 50 mM Tris HCl (4° C.). The filters were then allowed to dry overnight before adding Microscint-0 scintillation cocktail (Perkin Elmer). […] For Kd and Bmax determination the specific binding was calculated (total binding minus non-specific binding) and analyzed using a one-site binding model (hyperbolic). The total binding and non-specific binding were also plotted for comparison (see FIG. 4). […] The extra sum of squares F-test was used to evaluate three potential models to fit the data; a one-site fit (with hill slope constrained to 1), a one-site fit (with hill slope as a variable) and a two-site fit. […] The Koff from dissociation studies was calculated using non-linear regression (exponential model) and then, in combination with the data from association studies, used to calculate the Kon. All data were analyzed using GraphPad Prism 5.

T4 sequence (P33261 whole entry): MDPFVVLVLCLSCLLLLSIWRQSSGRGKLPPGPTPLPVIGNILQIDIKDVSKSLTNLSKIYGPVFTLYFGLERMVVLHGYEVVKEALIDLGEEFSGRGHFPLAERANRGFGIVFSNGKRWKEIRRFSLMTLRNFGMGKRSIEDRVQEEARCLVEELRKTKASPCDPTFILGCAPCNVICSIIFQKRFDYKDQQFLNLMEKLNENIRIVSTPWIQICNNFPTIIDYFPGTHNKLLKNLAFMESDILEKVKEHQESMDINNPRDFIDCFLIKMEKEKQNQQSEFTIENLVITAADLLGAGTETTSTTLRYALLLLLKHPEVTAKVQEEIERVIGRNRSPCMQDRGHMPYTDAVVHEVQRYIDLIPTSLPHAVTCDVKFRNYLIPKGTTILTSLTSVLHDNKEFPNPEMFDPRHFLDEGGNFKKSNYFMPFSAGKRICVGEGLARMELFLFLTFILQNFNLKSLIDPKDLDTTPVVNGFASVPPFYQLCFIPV
T3 sequence (P11712 whole entry): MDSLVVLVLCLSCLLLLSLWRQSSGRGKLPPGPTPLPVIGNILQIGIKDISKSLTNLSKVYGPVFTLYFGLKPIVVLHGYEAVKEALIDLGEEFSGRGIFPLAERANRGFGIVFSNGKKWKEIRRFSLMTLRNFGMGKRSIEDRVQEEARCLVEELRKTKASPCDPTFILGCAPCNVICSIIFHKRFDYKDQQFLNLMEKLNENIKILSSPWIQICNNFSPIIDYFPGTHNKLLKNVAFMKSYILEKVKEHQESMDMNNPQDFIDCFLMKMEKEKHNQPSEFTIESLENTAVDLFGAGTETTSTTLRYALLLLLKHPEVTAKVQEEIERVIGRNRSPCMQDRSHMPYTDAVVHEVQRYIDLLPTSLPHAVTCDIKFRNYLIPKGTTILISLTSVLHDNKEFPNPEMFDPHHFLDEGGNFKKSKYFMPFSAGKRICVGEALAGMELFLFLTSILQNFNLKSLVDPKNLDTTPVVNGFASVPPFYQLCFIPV
T2 sequence (P10635 whole entry): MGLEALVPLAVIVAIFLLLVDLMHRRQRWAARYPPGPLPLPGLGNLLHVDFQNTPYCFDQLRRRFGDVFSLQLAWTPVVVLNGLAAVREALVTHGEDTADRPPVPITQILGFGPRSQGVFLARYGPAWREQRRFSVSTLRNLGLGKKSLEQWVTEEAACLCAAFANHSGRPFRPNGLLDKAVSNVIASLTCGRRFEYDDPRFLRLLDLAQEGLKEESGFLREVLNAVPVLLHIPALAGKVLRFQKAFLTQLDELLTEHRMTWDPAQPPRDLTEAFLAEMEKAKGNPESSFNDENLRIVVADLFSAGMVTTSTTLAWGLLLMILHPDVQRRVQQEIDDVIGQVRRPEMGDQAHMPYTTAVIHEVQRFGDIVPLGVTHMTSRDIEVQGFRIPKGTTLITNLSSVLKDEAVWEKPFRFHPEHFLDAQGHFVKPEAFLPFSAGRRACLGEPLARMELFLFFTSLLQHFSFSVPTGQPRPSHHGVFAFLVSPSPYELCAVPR

Consider `COc1ccc(Cl)c(C(=O)NCC23CC4CC(CC(C4)C2)C3)c1` [Compound 31, reference compound], for which the IC50 in series [1] was 26 nM and 25.7 nM. Also, the inhibition at 60 min, 1 μM in series [2] is -47.3%; in series [3], 75%; in series [5] it was 84.4%. This molecule also gave an apical-to-basolateral permeability (Papp A→B) at 30 min, 10 μM in series [4] of 40.9 ×10⁻⁶ cm/s. This molecule also registered a Papp B→A at 30 min, 10 μM in series [4] of 23.6 ×10⁻⁶ cm/s. The inhibition constant Ki in series [6] was 8.5 nM.
On to `COc1ccc(Cl)c(C(=O)NCC23CC4CC(CC(F)(C4)C2)C3)c1` [Compound 3, 2-Chloro-N-((3-fluoroadamantan-1-yl)methyl)-5-methoxybenzamide], for which, in series [1], the half-inhibitory concentration (IC50) came out at 17.4 ± 2.9 nM. Moreover, the inhibition at 60 min, 1 μM in series [2] was -28.9%; in series [3] it was 32.3%; in series [5], 46.9%. For the same molecule, in series [4], the Papp A→B at 30 min, 10 μM is 28.1 ×10⁻⁶ cm/s. Further, in series [4], the Papp B→A at 30 min, 10 μM is 34.3 ×10⁻⁶ cm/s. Also, in series [6], the Ki was 21.9 ± 0.5 nM.
With `COc1ccc(Cl)c(C(=O)NCC23CC4(F)CC(F)(CC(F)(C4)C2)C3)c1` [Compound 1, 2-Chloro-N-((3,5,7-trifluoroadamantan-1-yl)methyl)-5-methoxybenzamide], the inhibition at 60 min, 1 μM in series [2] was -29.1%; in series [3] it was 9.26%; in series [5] it was 12.9%. In series [4], this molecule displayed a Papp A→B at 30 min, 10 μM of 30.3 ×10⁻⁶ cm/s. In series [4], this molecule returned a Papp B→A at 30 min, 10 μM of 44.2 ×10⁻⁶ cm/s.
With `COc1ccc(Cl)c(C(=O)NCC23CC4CC(F)(CC(F)(C4)C2)C3)c1` [Compound 2, 2-Chloro-N-((3,5-difluoroadamantan-1-yl)methyl)-5-methoxybenzamide], in series [1], the IC50 was determined as 10 ± 4 nM. Besides, the figures for the inhibition at 60 min, 1 μM in series [2], in series [3] and in series [5] were -25.3%, -3% and 1.5%, respectively. Further, the apparent permeability from apical to basolateral (Papp A→B) at 30 min, 10 μM in series [4] was found to be 40 ×10⁻⁶ cm/s. This molecule also showed a basolateral-to-apical permeability (Papp B→A) at 30 min, 10 μM in series [4] of 54.8 ×10⁻⁶ cm/s. For the same molecule, in series [6], the Ki is 23 ± 5 nM.
